For orientation: MIC means the least concentration at which growth counts as inhibited. Lower therefore signals a more susceptible organism.

This is an account of results in ChEMBL document CHEMBL4229334, “Fluoroquinolone derivatives and their anti-tubercular activities” (Eur J Med Chem, 2018).

Molecules are shown by their SMILES. ≈ marks a conversion by molar mass, not a printed value.

Common to all, as to format: functional
Assay [1] has as its system Mycobacterium tuberculosis. Briefly: Antibacterial activity against multidrug resistant Mycobacterium tuberculosis after 7 days by two fold dilution assay. The conditions noted are these: 168 h.
Assay [2] has as its system Mycobacterium tuberculosis. Put plainly: Antibacterial activity against multidrug resistant Mycobacterium tuberculosis ATTC 27294 by Alamar Blue assay. (Resazurin is reduced to fluorescent resorufin, in cell work by metabolically active cells.)
Assay [3] deals with Mycobacterium tuberculosis. Put plainly: Potency index, ratio of MIC for LVFX to MIC for test compound for antitubercular activity against rifampicin-resistant Mycobacterium tuberculosis after 21 days by two fold agar dilution method. In general terms: In agar dilution, organisms are placed on agar that contains the substance at set levels.
Assay [4] deals with Mycobacterium tuberculosis. Put plainly: Potency index, ratio of MIC for isoniazid to MIC for test compound for antitubercular activity against rifampicin-resistant Mycobacterium tuberculosis after 21 days by two fold agar dilution method.
Assay [5] deals with Mycobacterium tuberculosis. Put plainly: Antitubercular activity against rifampicin-resistant Mycobacterium tuberculosis after 21 days by two fold agar dilution method. Particulars: 504 h.
In assay [6] the test system is Mycobacterium tuberculosis. Briefly: Potency index, ratio of MIC for GTFX to MIC for test compound for antitubercular activity against rifampicin-resistant Mycobacterium tuberculosis after 21 days by two fold agar dilution method.
Assay [7] concerns Mycobacterium tuberculosis. Put plainly: Potency index, ratio of MIC for rifampicin to MIC for test compound for antitubercular activity against rifampicin-resistant Mycobacterium tuberculosis after 21 days by two fold agar dilution method.

Compound `NNC(=O)c1ccncc1` [ISONIAZID] yielded an MIC in assay [1] greater than 128 µg/mL.

`O=C(O)c1cn(C2CC2)c2cc(N3CCNCC3)c(F)cc2c1=O` [CIPROFLOXACIN] gave an MIC in assay [2] of 0.1 to 0.6 µg/mL (≈ 0.302 to 1.81 µM).

With `COc1c(N2C[C@@H]3CCCN[C@@H]3C2)c(F)cc2c(=O)c(C(=O)O)cn(C3CC3)c12` [MOXIFLOXACIN], the MIC in assay [2] is 0.1 to 0.6 µg/mL (≈ 0.249 to 1.49 µM).

For the compound `CO[C@H]1/C=C/O[C@@]2(C)Oc3c(C)c(O)c4c(O)c(c(/C=N/N5CCN(C)CC5)c(O)c4c3C2=O)NC(=O)/C(C)=C\C=C\[C@H](C)[C@H](O)[C@@H](C)[C@@H](O)[C@@H](C)[C@H](OC(C)=O)[C@@H]1C` [RIFAMPIN], the MIC in assay [1] came out at 32 µg/mL (≈ 38.9 µM).

On to `COc1c(N2CCNC(C)C2)c(F)cc2c(=O)c(C(=O)O)cn(C3CC3)c12` (stereo not given) [GATIFLOXACIN], for which the MIC in assay [2] was in the range of 0.1 to 0.6 µg/mL (≈ 0.266 to 1.6 µM).

For the compound `C[C@H]1COc2c(N3C[C@H]4CCCN[C@H]4C3)c(F)cc3c(=O)c(C(=O)O)cn1c23`, the Ratio result in assay [3], in assay [4], in assay [6] and in assay [7] was “>=2.7 - 250” in each case. This compound showed an MIC in assay [5] of 0.2 to 1.7 µg/mL (≈ 0.516 to 4.39 µM).
